Measured values reported in US20050143927A1, “Method for estimating or predicting the anti-tumor activity of a compound and for estimating or predicting the tumor growth in mammals” (Pharmacia Italia S.p.A., priority 2002, published 2005).

Legend:
[1] = system: H207 (ovarian human carcinoma); assay: Tumor growth model for treated subjects, H207 inoculated subcutaneously in athymic nude mice (Experiment-C); format: in vivo; settings: average growth curve
[2] = three-compartment PK model; known average value; cited from earlier work
[3] = system: H207 (ovarian human carcinoma); assay: Tumor growth model for treated subjects, H207 inoculated subcutaneously in athymic nude mice (Experiment-C); format: in vivo; settings: average growth curve; remark: listed apart in the source
Method: The cell line H207 (ovarian human carcinoma) was inoculated subcutaneously on the back of 70 female athymic nude mice, initially weighing 17.0-25.0 g. […] Cage G2: 7 mice, treated with 3 iv-bolus of Drug-C, repeated every 7 days (therapeutic regimen q7d×3), at a dosing of 0.39 mg/kg. • III. Cage G3: 7 mice, treated with iv-bolus of Drug-C at the therapeutic regimen q7d×3, at a dosing of 0.52 mg/kg. • IV. […] Cage G6: 7 mice, treated with iv-bolus of Drug-C at the therapeutic regimen q4d×3, at a dosing of 0.39 mg/kg. • VII. Cage G8: 7 mice, treated with iv-bolus of Drug-C at the therapeutic regimen q4d×3, at a dosing of 0.52 mg/kg. • VIII. Cage G9: 7 mice, treated with 10 iv-bolus of Drug-C, subdivided in 2 cycles of treatment of 5 daily iv-bolus followed by 2 days of rest (therapeutic regimen qd×5×2 wks), at the dosing of 0.117 mg/kg each. • IX. Cage G10: 7 mice treated at the same treatment and therapeutic regimen of G4, but with the drug coming from a different batch of production.
In this case, despite the silent interval finished in correspondence of the tenth day (where the first measurement of the tumor mass was carried out), the chemotherapeutic treatment started in correspondence of the eleventh day.
The dimensions of the tumor can be taken applying different types of measurements broadly classifiable as measurements of linear dimensions, of volume (or mass) and cell number. For tumors that maintain more or less a spherical morphology, as in the case of solid tumors, the measurement of the three principal diameters results the most adequate, as well as the most practiced solution. Nevertheless, in the case of subcutaneous tumors, the tumor can be considered of spherical shape only during the initial phase of growth; in the following phases, the dimension perpendicular to the skin is generally much smaller than the percutaneous dimensions, conferring to the mass a plaque-like shape or an hemi-ellipsoidal shape. In the experiments taken into consideration, only the dimensions of the two percutaneous diameters were directly measured with vernier calipers. The third dimension was not directly measured, because of the limited accessibility (which would have required a greater invasiveness), in the assumption that two measures were anyhow sufficient to guarantee a good approximation of the tumor mass (K. Rygaard and M. Spang-Thomsen, “Quantitation and Gompertzian analysis of tumor growth”. Breast Cancer Research and Treatment, 46: 303-312,1997).
The volume of a tumor can be indirectly calculated by applying the following empirical formula: [formula] where DMIN and DMAX denote, respectively, the smallest and the largest percutaneous diameter. Such empirical formula hypothesizes that the neoplasia has an ellipsoidal shape (D. A. Cameron, W. M. Gregory, A. Bowman, E. D. C. Anderson, P. Levack, P. Forouhi and R. F. C. Leonard, “Identification of long-term survivors in primary breast cancer by dynamic modeling of tumour response”. British Journal of Cancer, 83(1): 98-103, 2000, Hammond, L. A.; Hilsenbeck, S. G.; Eckhardt, S. G.; Marty, J; Mangold, G.; MacDonald, G. R.; Rowinsky, E. K.; Von Hoff, D. D; Weitman S. Enhanced antitumour activity of 6-hydroxymethylacylfulvene in combination with topotecan or paclitaxel in the MV522 lung carcinoma xenograft model. European Journal of Cancer 2000, 36, 2430-2436) obtained by the rotation of a hemi-ellipsoid (with DMIN and DMAX as axes of the percutaneous plane) around its largest axe. Assuming δ as a constant density equal to δ=10^−3g/mm^3, the empirical expression for the mass of the neoplasia results to be: [formula] The Measurement Error Model

[4] = cage G8, 0.117 mg/kg iv-bolus qdx5x2wks
[5] = cage G9, 0.156 mg/kg iv-bolus qdx5x2wks
[6] = cage G2, 0.39 mg/kg iv-bolus q7dx3
[7] = cage G3, 0.52 mg/kg iv-bolus q7dx3
[8] = cage G4, 0.78 mg/kg iv-bolus q7dx3
[9] = cage G5, 0.26 mg/kg iv-bolus q4dx3
[10] = cage G6, 0.39 mg/kg iv-bolus q4dx3
[11] = cage G7, 0.52 mg/kg iv-bolus q4dx3
[12] = cage G10, 0.78 mg/kg iv-bolus q7dx3, drug from a different batch

C=C(Br)C(=O)Nc1cc(C(=O)Nc2cc(C(=O)Nc3cc(C(=O)Nc4cc(C(=O)NCCNC(=N)N)n(C)c4)n(C)c3)n(C)c2)n(C)c1 [Drug-C, brostallicin]
K2 (index of the potency of the compound) [1, 4]: 0.2081 mL/g/day
λ0 (production rate of tumor cells, exponential phase) [1, 4]: 0.2611
λ1 (tumor cells mass produced in the time unit, linear phase) [1, 4]: 0.581
K1 (index of the tumor cells death rate) [1, 5]: 0.4152 day⁻¹
K10 [2]: 134.7 day⁻¹
K12 [2]: 42.33 day⁻¹
K13 [2]: 13.28 day⁻¹
K21 [2]: 48.7 day⁻¹
K31 [2]: 5.898 day⁻¹
Vd [2]: 0.1811 L/kg
K1 (index of the tumor cells death rate) [3, 6]: 0.289 day⁻¹
K2 (index of the potency of the compound) [3, 6]: 0.1731 mL/g/day
λ0 (production rate of tumor cells, exponential phase) [3, 6]: 0.2886
λ1 (tumor cells mass produced in the time unit, linear phase) [3, 6]: 0.5183
K1 (index of the tumor cells death rate) [3, 7]: 0.2574 day⁻¹
K2 (index of the potency of the compound) [3, 7]: 0.1519 mL/g/day
λ0 (production rate of tumor cells, exponential phase) [3, 7]: 0.2757
λ1 (tumor cells mass produced in the time unit, linear phase) [3, 7]: 0.6241
K1 (index of the tumor cells death rate) [3, 8]: 0.2558 day⁻¹
K2 (index of the potency of the compound) [3, 8]: 0.1085 mL/g/day
λ0 (production rate of tumor cells, exponential phase) [3, 8]: 0.2297
λ1 (tumor cells mass produced in the time unit, linear phase) [3, 8]: 0.3193
K1 (index of the tumor cells death rate) [3, 9]: 0.2979 day⁻¹
K2 (index of the potency of the compound) [3, 9]: 0.2044 mL/g/day
λ0 (production rate of tumor cells, exponential phase) [3, 9]: 0.2728
λ1 (tumor cells mass produced in the time unit, linear phase) [3, 9]: 0.602
K1 (index of the tumor cells death rate) [3, 10]: 0.3486 day⁻¹
K2 (index of the potency of the compound) [3, 10]: 0.1698 mL/g/day
λ0 (production rate of tumor cells, exponential phase) [3, 10]: 0.2554
λ1 (tumor cells mass produced in the time unit, linear phase) [3, 10]: 0.2736
K1 (index of the tumor cells death rate) [3, 11]: 0.2488 day⁻¹
K2 (index of the potency of the compound) [3, 11]: 0.12 mL/g/day
λ0 (production rate of tumor cells, exponential phase) [3, 11]: 0.1966
λ1 (tumor cells mass produced in the time unit, linear phase) [3, 11]: 0.279
K1 (index of the tumor cells death rate) [3, 4]: 0.3766 day⁻¹
K2 (index of the potency of the compound) [3, 5]: 0.2829 mL/g/day
λ0 (production rate of tumor cells, exponential phase) [3, 5]: 0.2942
λ1 (tumor cells mass produced in the time unit, linear phase) [3, 5]: 0.1931
K1 (index of the tumor cells death rate) [3, 12]: 0.3789 day⁻¹
K2 (index of the potency of the compound) [3, 12]: 0.1558 mL/g/day
λ0 (production rate of tumor cells, exponential phase) [3, 12]: 0.2969
λ1 (tumor cells mass produced in the time unit, linear phase) [3, 12]: 0.2177
